In brackets after ≈: the same amount, converted by molar mass.

The record followed here is ChEMBL document CHEMBL4725301, “Discovery of a novel 9-position modified second-generation anti-HCV candidate via bioconversion and semi-synthesis of FR901459” (Bioorg Med Chem Lett, 2020).

The nature of data set [1]: AUC (0 to 24 hrs) in po dosed rat. The class given is ADME, organism-based. More on the design: time < 24 hr, route oral. The following applies: in vivo.
Data set [2] can be described thus: Oral bioavailability in rat. It is filed as ADME, organism-based. The following applies: in vivo.
Data set [3] in a line: Aqueous solubility of the compound in JP2 fluid at pH 6.8 by disintegration test. The class given is physicochemical.
Data set [4] in a line: Inhibition of cyclophilin (unknown origin) assessed as inhibition of HCV FLR1 subgenomic viral replicon replication in presence of 10% FBS by luciferase reporter gene assay. Further details: species or system Homo sapiens.
The nature of data set [5]: Inhibition of cyclophilin (unknown origin) assessed as inhibition of HCV FLR1 subgenomic viral replicon replication in presence of 50% human serum albumin by luciferase reporter gene assay. (A replicon is a self-replicating genome or part of one, used to study replication in cells.)
A further data set deals with Splenocyte. The data set can be described thus: Immunosuppressive activity in mouse splenocytes assessed as inhibition of concanavalinA-induced cell proliferation. It is filed as cell-based.
Data set [6] is described as follows: Inhibition of cyclophilin (unknown origin) assessed as inhibition of HCV #50-1 subgenomic viral replicon replication in presence of 5% FBS. Further details: species or system Homo sapiens.
Data set [7] in a line: Inhibition of cyclophilin (unknown origin) assessed as inhibition of HCV #50-1 subgenomic viral replicon replication in presence of 50% human serum albumin.
The next data set relates to Hepatitis C virus. The data set is described as follows: Antiviral activity against Hepatitis C virus genotype 1a infected in humanized liver SCID-Alb/uPA chimeric mouse assessed as log reduction in serum HCV RNA level at 15 mg/kg, po administered via gavage bid for 14 days cotreated with interferon-alfa2b at 400 U/g, sc administered qd measured for 7 days follow-up period without compound administration post-last dose. It is filed as functional, Hepacivirus hominis, subtype 1a. The following applies: time 14 day.

In data set [1], `C/C=C/C[C@@H](C)[C@@H](O)[C@H]1C(=O)N[C@@H]([C@@H](C)O)C(=O)N(C)[C@H](C)C(=O)N(C)[C@@H]([C@@H](C)OC)C(=O)N[C@@H](CC(C)C)C(=O)N(C)[C@@H](CC(C)C)C(=O)N[C@@H](C)C(=O)N[C@H](C)C(=O)N[C@@H](CC(C)C)C(=O)N[C@@H](CC(C)C)C(=O)N(C)[C@@H](C(C)C)C(=O)N1C` had an AUC(0-t) at 24 h of 16100 ng·h/mL. The compound further had a bioavailability in data set [2] of 36%. The same compound showed a solubility in [3] of 117 µg/mL (≈ 95.9 µM).
Consider `C/C=C/C[C@@H](C)[C@@H](O)[C@H]1C(=O)N[C@@H]([C@@H](C)O)C(=O)N(C)[C@H](COC)C(=O)N(C)[C@@H](CC(C)C)C(=O)N[C@@H](CC(C)C)C(=O)N(C)[C@@H](CC(C)C)C(=O)N[C@@H](C)C(=O)N[C@H](C)C(=O)N[C@@H](C[C@H](C)CN2CCOCC2)C(=O)N[C@@H](CC(C)C)C(=O)N(C)[C@@H](C(C)C)C(=O)N1C`, for which the EC50 was found to be 0.11 µg/mL in [4] and 0.25 µg/mL in [5].
As to `C/C=C/C[C@@H](C)[C@@H](O)[C@H]1C(=O)N[C@@H]([C@@H](C)O)C(=O)N(C)CC(=O)N(C)[C@@H](CC(C)C)C(=O)N[C@@H](CC(C)C)C(=O)N(C)[C@@H](CC(C)C)C(=O)N[C@@H](C)C(=O)N[C@H](C)C(=O)N[C@@H](C[C@H](C)CN2CCOCC2)C(=O)N[C@@H](CC(C)C)C(=O)N(C)[C@@H](C(C)C)C(=O)N1C`, the IC50 in the data set with Splenocyte is 0.12 µg/mL (≈ 0.093 µM). Further, the EC50 in data set [6] is 0.22 µg/mL.
Take `C/C=C/C[C@@H](C)[C@@H](O)[C@H]1C(=O)N[C@@H]([C@@H](C)O)C(=O)N(C)CC(=O)N(C)[C@@H](CC(C)C)C(=O)N[C@@H](CC(C)C)C(=O)N(C)[C@@H](CC(C)C)C(=O)N[C@@H](C)C(=O)N[C@H](C)C(=O)N[C@@H](CC(C)C)C(=O)N[C@@H](CC(C)C)C(=O)N(C)[C@@H](C(C)C)C(=O)N1C`: in the data set on Splenocyte, the IC50 turned out to be 0.026 µg/mL (≈ 0.0216 µM). Moreover, the EC50 in [7] was 3.7 µg/mL; in data set [6], 0.096 µg/mL.
As to `C/C=C/C[C@@H](C)[C@@H](O)[C@H]1C(=O)N[C@@H]([C@@H](C)O)C(=O)N(C)[C@H](COC)C(=O)N(C)[C@@H](CC(C)C)C(=O)N[C@@H](CC(C)C)C(=O)N(C)[C@@H](CC(C)C)C(=O)N[C@@H](C)C(=O)N[C@H](C)C(=O)N[C@@H](C[C@H](C)COC(=O)N2CCO[C@@H](COC)C2)C(=O)N[C@@H](CC(C)C)C(=O)N(C)[C@@H](C(C)C)C(=O)N1C`, the EC50 in [4] turned out to be 0.058 µg/mL; in data set [5] it was 0.064 µg/mL. In the data set on Splenocyte, the IC50 stood at 0.88 µg/mL (≈ 0.619 µM). In [1], the AUC(0-t) at 24 h came out at 12400 ng·h/mL. In addition, the bioavailability in data set [2] stood at 12.9%. This compound also registered a solubility in data set [3] of 73 µg/mL (≈ 51.3 µM).
`C/C=C/C[C@@H](C)[C@@H](O)[C@H]1C(=O)N[C@@H]([C@@H](C)O)C(=O)N(C)[C@H](COC)C(=O)N(C)[C@@H](CC(C)C)C(=O)N[C@@H](CC(C)C)C(=O)N(C)[C@@H](CC(C)C)C(=O)N[C@@H](C)C(=O)N[C@H](C)C(=O)N[C@@H](C[C@H](C)COC(=O)N(C)CCOC)C(=O)N[C@@H](CC(C)C)C(=O)N(C)[C@@H](C(C)C)C(=O)N1C`: the EC50 in [4] was 0.06 µg/mL; in [5], 0.097 µg/mL. Also, the IC50 with Splenocyte is 0.85 µg/mL (≈ 0.616 µM).
Consider `C/C=C/C[C@@H](C)[C@@H](O)[C@H]1C(=O)N[C@@H]([C@@H](C)O)C(=O)N(C)CC(=O)N(C)[C@@H](CC(C)C)C(=O)N[C@@H](CC(C)C)C(=O)N(C)[C@@H](CC(C)C)C(=O)N[C@@H](C)C(=O)N[C@H](C)C(=O)N[C@@H](C[C@H](C)COC(=O)NCCOC)C(=O)N[C@@H](CC(C)C)C(=O)N(C)[C@@H](C(C)C)C(=O)N1C`, for which the IC50 in the data set on Splenocyte came out at 0.75 µg/mL (≈ 0.567 µM). Further, the EC50 in data set [7] was found to be 0.55 µg/mL; in data set [6], 0.097 µg/mL.
In the case of `C/C=C/C[C@@H](C)[C@@H](O)[C@H]1C(=O)N[C@@H]([C@@H](C)O)C(=O)N(C)[C@H](COC)C(=O)N(C)[C@@H](CC(C)C)C(=O)N[C@@H](CC(C)C)C(=O)N(C)[C@@H](CC(C)C)C(=O)N[C@@H](C)C(=O)N[C@H](C)C(=O)N[C@@H](C[C@H](C)CN2CCOC(COC)(COC)C2)C(=O)N[C@@H](CC(C)C)C(=O)N(C)[C@@H](C(C)C)C(=O)N1C`, the EC50 was determined as 0.063 µg/mL in data set [4] and 0.1 µg/mL in data set [5]. In addition, the “log(activity)” value with Hepatitis C virus is on record as 2. Moreover, the IC50 in the data set with Splenocyte was found to be 1.7 µg/mL (≈ 1.2 µM). In addition, the AUC(0-t) at 24 h in data set [1] came to 16900 ng·h/mL. For the same compound, the bioavailability in [2] amounted to 28.3%. The compound also displayed a solubility in data set [3] of 54 µg/mL (≈ 38 µM).
Consider `C/C=C/C[C@@H](C)[C@@H](O)[C@H]1C(=O)N[C@@H]([C@@H](C)O)C(=O)N(C)CC(=O)N(C)[C@@H](CC(C)C)C(=O)N[C@@H](CC(C)C)C(=O)N(C)[C@@H](CC(C)C)C(=O)N[C@@H](C)C(=O)N[C@H](C)C(=O)N[C@@H](C[C@H](C)COC(=O)N2CCN(C)CC2)C(=O)N[C@@H](CC(C)C)C(=O)N(C)[C@@H](C(C)C)C(=O)N1C`, for which the IC50 with Splenocyte worked out at 1.9 µg/mL (≈ 1.41 µM). Besides, the figures for the EC50 in data set [7] and in [6] were 0.22 µg/mL and 0.16 µg/mL, respectively.
In the same order, the values of `C/C=C/C[C@@H](C)[C@@H](O)[C@H]1C(=O)N[C@@H]([C@@H](C)O)C(=O)N(C)CC(=O)N(C)[C@@H](CC(C)C)C(=O)N[C@@H](CC(C)C)C(=O)N(C)[C@@H](CC(C)C)C(=O)N[C@@H](C)C(=O)N[C@H](C)C(=O)N[C@@H](C[C@H](C)CO)C(=O)N[C@@H](CC(C)C)C(=O)N(C)[C@@H](C(C)C)C(=O)N1C` are 0.28 µg/mL (≈ 0.229 µM), 2.4 µg/mL and 0.85 µg/mL.
In the same order, the values of `C/C=C/C[C@@H](C)[C@@H](O)[C@H]1C(=O)N[C@@H]([C@@H](C)O)C(=O)N(C)CC(=O)N(C)[C@@H](CC(C)C)C(=O)N[C@@H](CC(C)C)C(=O)N(C)[C@@H](CC(C)C)C(=O)N[C@@H](C)C(=O)N[C@H](C)C(=O)N[C@@H](C[C@H](C)COCC(=O)N2CCOCC2)C(=O)N[C@@H](CC(C)C)C(=O)N(C)[C@@H](C(C)C)C(=O)N1C` are 0.92 µg/mL (≈ 0.683 µM), 0.56 µg/mL and 0.099 µg/mL.

For orientation: AUC(0-t) means exposure summed from dosing to a finite time, without extrapolation to infinity. A higher AUC(0-t) goes with high exposure. Broadly, the bioavailability is dose-corrected exposure relative to a reference, in per cent. High values mean much systemic uptake, low ones little systemic uptake. In general, solubility refers to the concentration that dissolves in the medium under given conditions. High values mean much dissolved substance, low ones little dissolved substance. The EC50 is the concentration that produces a half-maximal response. Broadly, the IC50 is the midpoint of a concentration-inhibition curve.
